From patent publication US20260317324A1, “BIFUNCTIONAL COMPOUNDS FOR DEGRADING BRAF VIA UBIQUITIN PROTEOSOME PATHWAY” (Nurix Therapeutics, Inc., priority 2023, published 2026)

What was measured:
Format in all cases: cell-based
BRAF G469A = target: T1, BRAF G469A (Homo sapiens, UniProt P15056, G469A); assay: BRAF HiBiT degradation assay, C-terminal HiBiT-tagged BRAF G469A overexpressed in HCT-116 BRAF−/− cells (clone 34), Nano-Glo HiBiT Lytic assay
T1 construct: Horizon Discovery (HCT-116 BRAF−/− cells); host or cells: HCT-116 BRAF−/− cells, clone 34, lentiviral transduction
T1 sequence (P15056 whole entry G469A): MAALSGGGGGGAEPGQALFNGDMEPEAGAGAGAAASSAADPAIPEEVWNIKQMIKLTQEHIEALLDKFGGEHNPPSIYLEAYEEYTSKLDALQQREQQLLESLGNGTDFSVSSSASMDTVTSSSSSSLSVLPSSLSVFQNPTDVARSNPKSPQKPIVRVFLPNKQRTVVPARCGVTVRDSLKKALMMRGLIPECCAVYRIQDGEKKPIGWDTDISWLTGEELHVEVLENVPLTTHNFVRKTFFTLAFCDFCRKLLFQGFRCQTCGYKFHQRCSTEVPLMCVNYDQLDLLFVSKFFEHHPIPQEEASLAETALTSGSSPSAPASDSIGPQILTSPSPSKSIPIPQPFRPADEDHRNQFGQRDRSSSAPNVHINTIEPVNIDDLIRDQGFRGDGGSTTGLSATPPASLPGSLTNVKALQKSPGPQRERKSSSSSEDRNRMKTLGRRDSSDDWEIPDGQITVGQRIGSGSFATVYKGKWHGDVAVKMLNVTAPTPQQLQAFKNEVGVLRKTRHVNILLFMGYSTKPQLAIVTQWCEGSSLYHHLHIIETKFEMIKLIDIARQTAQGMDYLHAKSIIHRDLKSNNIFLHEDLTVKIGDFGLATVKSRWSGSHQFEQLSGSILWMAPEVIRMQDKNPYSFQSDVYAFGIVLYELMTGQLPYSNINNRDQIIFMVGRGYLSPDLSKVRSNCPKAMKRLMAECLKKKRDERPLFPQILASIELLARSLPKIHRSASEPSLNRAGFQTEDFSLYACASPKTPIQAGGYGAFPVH
In short: (§1)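 Degradation was read by Nano-Glo HiBiT lytic luminescence, normalised to DMSO-treated tagged cells with wildtype HCT-116 as background. Test cells were lentiviral clones of HCT-116 BRAF−/− carrying HiBiT-tagged mutants in RPMI/10% FBS, given compound at 0.01 nM–1 μM in duplicate. Outputs are the curve-fitted concentration giving 50% degradation and the maximal observed degradation.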

BRAF D594G = target: T2, BRAF D594G (Homo sapiens, UniProt P15056, D594G); assay: BRAF HiBiT degradation assay, C-terminal HiBiT-tagged BRAF D594G overexpressed in HCT-116 BRAF−/− cells (clone 63), Nano-Glo HiBiT Lytic assay
T2 construct: Horizon Discovery (HCT-116 BRAF−/− cells); host or cells: HCT-116 BRAF−/− cells, clone 63, lentiviral transduction
T2 sequence (P15056 whole entry D594G): as the sequence (P15056 whole entry G469A) above, with A469G, D594G counted along it
In short: as §1

BRAF G466V = target: T3, BRAF G466V (Homo sapiens, UniProt P15056, G466V); assay: BRAF HiBiT degradation assay, C-terminal HiBiT-tagged BRAF G466V overexpressed in HCT-116 BRAF−/− cells (clone 8), Nano-Glo HiBiT Lytic assay
T3 construct: Horizon Discovery (HCT-116 BRAF−/− cells); host or cells: HCT-116 BRAF−/− cells, clone 8, lentiviral transduction
T3 sequence (P15056 whole entry G466V): as the sequence (P15056 whole entry G469A) above, with G466V, A469G counted along it
In short: as §1

BRAF V600E = target: T4, BRAF V600E (Homo sapiens, UniProt P15056, V600E); assay: BRAF HiBiT degradation assay, C-terminal HiBiT-tagged BRAF V600E A375 cells (clone 1F10), Nano-Glo HiBiT Lytic assay; details: for Dmax: A-375
T4 construct: endogenous C-terminal HiBiT fusion tag on BRAF V600E allele; endogenous in cells; host or cells: A375 clone 1F10 (CRISPR-Cas9 knock-in of the HiBiT tag; parental A375 from ATCC)
T4 sequence (P15056 whole entry V600E, the tested form may be a part): as the sequence (P15056 whole entry G469A) above, with A469G, V600E counted along it
In short: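 Luminescence from the Nano-Glo HiBiT lytic read-out gave % BRAF V600E remaining versus DMSO-treated tagged cells, with untagged A375 as background. Clone 1F10 cells (10,000/well, 24 h pre-culture) received compound at 1 μM–0.01 nM in half-log steps, 0.2% DMSO; curve fits gave DC50 at Y=50, plus observed Dmax.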

[1] = Class 2, BRAF G469A, DC50 at 50%: fitted conc. at Y=50
[2] = HCT-116, Class 2, BRAF G469A, percentage protein degraded at maximal compound effect relative to DMSO
[3] = BRAF D594G, DC50 at 50%: fitted conc. at Y=50
[4] = HCT-116, BRAF D594G, percentage protein degraded at maximal compound effect relative to DMSO
[5] = BRAF G466V, DC50 at 50%: fitted conc. at Y=50
[6] = HCT-116, BRAF G466V, percentage protein degraded at maximal compound effect relative to DMSO
[7] = A375 (BRAF V600E), DC50 at 50%: fitted conc. at Y=50
[8] = A375 (BRAF V600E), percentage protein degraded at maximal compound effect relative to DMSO
[9] = BRAF G469A (Class 2), HCT-116 BRAF−/− cells, DC50 at 50% degradation
[10] = BRAF G469A (Class 2), HCT-116 BRAF−/− cells, observed Dmax relative to DMSO control
[11] = BRAF D594G (Class 3), HCT-116 BRAF−/− cells, DC50 at 50% degradation
[12] = BRAF D594G (Class 3), HCT-116 BRAF−/− cells, observed Dmax relative to DMSO control
[13] = BRAF G466V (Class 3), HCT-116 BRAF−/− cells, DC50 at 50% degradation
[14] = BRAF G466V (Class 3), HCT-116 BRAF−/− cells, observed Dmax relative to DMSO control
[15] = A375 (BRAF V600E, Class 1), DC50 at 50% degradation
[16] = A375 (BRAF V600E, Class 1), observed Dmax, % protein degraded relative to DMSO control

Structure (SMILES)	DC50 (BRAF G469A; [1])	Dmax (BRAF G469A; [2])	DC50 (BRAF D594G; [3])	Dmax (BRAF D594G; [4])	DC50 (BRAF G466V; [5])	Dmax (BRAF G466V; [6])	DC50 (BRAF V600E; [7])	Dmax (BRAF V600E; [8])	DC50 (BRAF G469A; [9])	Dmax (BRAF G469A; [10])	DC50 (BRAF D594G; [11])	Dmax (BRAF D594G; [12])	DC50 (BRAF G466V; [13])	Dmax (BRAF G466V; [14])	DC50 (BRAF V600E; [15])	Dmax (BRAF V600E; [16])
CCCS(=O)(=O)Nc1cccc(-c2nc(C(C)(C)C)sc2-c2ccnc(Nc3ccc(N4CCN(C(=O)CC5CCN(c6ccc(C7CCC(=O)NC7=O)cn6)CC5)CC4)c(F)c3)n2)c1F (racemic) [Compound 48, Rac-N-[3-(2-tert-butyl-5-{2-[(4-{4-[2-(1-{5-[(3R)-2,6-dioxopiperidin-3-yl]pyridin-2-yl}piperidin-4-yl)acetyl]piperazin-1-yl}-3-fluorophenyl)amino]pyrimidin-4-yl}-1,3-thiazol-4-yl)-2-fluorophenyl]propane-1-sulfonamide]	> 500 nM	< 30%	> 500 nM	30 to 70%	> 500 nM	< 30%	< 10 nM	> 70%	–	–	–	–	–	–	–	–
CCCS(=O)(=O)Nc1cccc(-c2nc(C(C)(C)C)sc2-c2ccnc(Nc3cnn(CC4CCN(C(=O)[C@@H]5CCN(c6ccc(C7CCC(=O)NC7=O)cn6)C5)CC4)c3)n2)c1F (mixture of isomers) [Compound 114, N-{3-[2-tert-butyl-5-(2-{[1-({1-[(3R)-1-{5-[(3RS)-2,6-dioxopiperidin-3-yl]pyridin-2-yl}pyrrolidine-3-carbonyl]piperidin-4-yl}methyl)-1H-pyrazol-4-yl]amino}pyrimidin-4-yl)-1,3-thiazol-4-yl]-2-fluorophenyl}propane-1-sulfonamide]	> 500 nM	< 30%	> 500 nM	30 to 70%	> 500 nM	< 30%	10 to 50 nM	> 70%	–	–	–	–	–	–	–	–
O=C1CC[C@H](c2ccc(N3CCC(CN4CCN(c5ccc(-n6cc(-c7cc(C(F)F)cc(NS(=O)(=O)N8CCCC8)c7F)c(-c7ccncc7)n6)c(F)c5)CC4)CC3)cc2)C(=O)N1 [Compound 362, N-[5-(difluoromethyl)-3-[1-(4-{4-[(1-{4-[(3R)-2,6-dioxopiperidin-3-yl]phenyl}piperidin-4-yl)methyl]piperazin-1-yl}-2-fluorophenyl)-3-(pyridin-4-yl)-1H-pyrazol-4-yl]-2-fluorophenyl]pyrrolidine-1-sulfonamide]	–	–	–	–	–	–	–	–	10 to 50 nM	30 to 70%	< 10 nM	30 to 70%	< 10 nM	> 70%	< 10 nM	> 70%
CCCS(=O)(=O)Nc1cccc(-c2nc(C(C)(C)C)sc2-c2ccnc(Nc3ccc(C4CCN(CC5CCN(c6ccc([C@H]7CCC(=O)NC7=O)cc6)CC5)CC4)cc3)n2)c1F [Compound 89, N-[3-(2-tert-butyl-5-{2-[(4-{1-[(1-{4-[(3R)-2,6-dioxopiperidin-3-yl]phenyl}piperidin-4-yl)methyl]piperidin-4-yl}phenyl)amino]pyrimidin-4-yl}-1,3-thiazol-4-yl)-2-fluorophenyl]propane-1-sulfonamide]	> 500 nM	30 to 70%	> 500 nM	30 to 70%	> 500 nM	30 to 70%	10 to 50 nM	> 70%	–	–	–	–	–	–	–	–
CCCS(=O)(=O)Nc1cccc(-c2nc(C(C)(C)C)sc2-c2ccnc(Nc3ccc(N4CCN(C(=O)C5CCN(c6ccc(C7CCC(=O)NC7=O)cc6)CC5)CC4)c(F)c3)n2)c1F (racemic) [Compound 65, Rac-N-(3-{2-tert-butyl-5-[2-({4-[4-(1-{4-[(3R)-2,6-dioxopiperidin-3-yl]phenyl}piperidine-4-carbonyl)piperazin-1-yl]-3-fluorophenyl}amino)pyrimidin-4-yl]-1,3-thiazol-4-yl}-2-fluorophenyl)propane-1-sulfonamide]	> 500 nM	30 to 70%	> 500 nM	30 to 70%	> 500 nM	30 to 70%	< 10 nM	> 70%	–	–	–	–	–	–	–	–
CCN(C)S(=O)(=O)Nc1cccc(-c2nc(C(C)(C)C)sc2-c2ccnc(Nc3ccc(N4CCN(C(=O)C5(C)CCN(c6ccc(C7CCC(=O)NC7=O)cn6)CC5)CC4)cn3)n2)c1F (racemic) [Compound 42, Rac-(3S)-3-[6-(4-{4-[6-({4-[2-tert-butyl-4-(3-{[ethyl(methyl)sulfamoyl]amino}-2-fluorophenyl)-1,3-thiazol-5-yl]pyrimidin-2-yl}amino)pyridin-3-yl]piperazine-1-carbonyl}-4-methylpiperidin-1-yl)pyridin-3-yl]piperidine-2,6-dione]	> 500 nM	< 30%	> 500 nM	30 to 70%	> 500 nM	< 30%	< 10 nM	> 70%	–	–	–	–	–	–	–	–
CCN(C)S(=O)(=O)Nc1cccc(-c2nc(C(C)(C)C)sc2-c2ccnc(Nc3ccc(N4CCN(C(=O)CN5CCc6cc(C7CCC(=O)NC7=O)ccc6C5)CC4)c(F)c3)n2)c1F (racemic) [Compound 28, Rac-(3R)-3-[2-(2-{4-[4-({4-[2-tert-butyl-4-(3-{[ethyl(methyl)sulfamoyl]amino}-2-fluorophenyl)-1,3-thiazol-5-yl]pyrimidin-2-yl}amino)-2-fluorophenyl]piperazin-1-yl}-2-oxoethyl)-1,2,3,4-tetrahydroisoquinolin-6-yl]piperidine-2,6-dione]	10 to 50 nM	30 to 70%	10 to 50 nM	30 to 70%	< 10 nM	30 to 70%	< 10 nM	> 70%	–	–	–	–	–	–	–	–
CCCS(=O)(=O)Nc1cccc(-c2nc(C)sc2-c2ccnc(Nc3ccc(N4CCN(CC5CCN(c6ccc(C7CCC(=O)NC7=O)cn6)CC5)CC4)cn3)n2)c1F (racemic) [Compound 62, Rac-N-[3-(5-{2-[(5-{4-[(1-{5-[(3R)-2,6-dioxopiperidin-3-yl]pyridin-2-yl}piperidin-4-yl)methyl]piperazin-1-yl}pyridin-2-yl)amino]pyrimidin-4-yl}-2-methyl-1,3-thiazol-4-yl)-2-fluorophenyl]propane-1-sulfonamide]	< 10 nM	30 to 70%	> 500 nM	30 to 70%	10 to 50 nM	30 to 70%	< 10 nM	> 70%	–	–	–	–	–	–	–	–
CCN(C)S(=O)(=O)Nc1cccc(-c2cn(-c3ccc(N4CCN(CC5CCN(c6ccc([C@H]7CCC(=O)NC7=O)cn6)CC5)CC4)cc3F)nc2-c2ccncc2)c1F [Compound 379, (3R)-3-(6-{4-[(4-{4-[4-(3-{[ethyl(methyl)sulfamoyl]amino}-2-fluorophenyl)-3-(pyridin-4-yl)-1H-pyrazol-1-yl]-3-fluorophenyl}piperazin-1-yl)methyl]piperidin-1-yl}pyridin-3-yl)piperidine-2,6-dione]	–	–	–	–	–	–	–	–	> 500 nM	30 to 70%	50 to 500 nM	30 to 70%	50 to 500 nM	30 to 70%	50 to 500 nM	> 70%
CCCS(=O)(=O)Nc1cccc(-c2nc(C(C)(C)C)sc2-c2ccnc(Nc3ccc(N4CCN(CC5CCN(c6ccc([C@@H]7CCC(=O)NC7=O)cc6)CC5)CC4)cc3)n2)c1F [Compound 58, N-[3-(2-tert-butyl-5-{2-[(4-{4-[(1-{4-[(3S)-2,6-dioxopiperidin-3-yl]phenyl}piperidin-4-yl)methyl]piperazin-1-yl}phenyl)amino]pyrimidin-4-yl}-1,3-thiazol-4-yl)-2-fluorophenyl]propane-1-sulfonamide]	> 500 nM	30 to 70%	> 500 nM	30 to 70%	50 to 500 nM	30 to 70%	10 to 50 nM	> 70%	–	–	–	–	–	–	–	–
